# Assay results: the supplement of paper PMC11208160
# Experiment: recombinant barcode read abundance after kanamycin selection (control-corrected) (log10(CPM+1)); higher = more efficient recombination; sequences stand for … in AGTGCAGAGAAAATCGGCCAGTTTTCTCTGCCTGCAGTCCGCATGCCGT…AGATTTATGCAGCGGACTGCCTTTCTCCCAAAGTGATAAACCGGACAGTATCATGGACCGGTTTTCCCGGTAATCCGTATTTGCAAGGTTGGTTTCACT; site = the 11-nt target
# In short: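 Pooled E. coli screen pairing targets with IS621 bridge RNA target-binding loops. Each oligo (promoter, target, barcode, J23119-driven first 104 bridge RNA bases) was Gibson-cloned into a vector with the remaining 73 bp and T7-inducible recombinase, then co-electroporated with a donor plasmid. Two replicates each were plated on chloramphenicol/ampicillin LB agar (control) or chloramphenicol/ampicillin/kanamycin with 0.1 mM IPTG. Recombination efficiency is recombinant-junction barcode counts as CPM, averaged, control-corrected, reported as log10(CPM+1).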
# 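Further: IS621 recombinase and bridge RNA in Escherichia coli cells.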
row,Sequence,recombinant barcode read abundance (log10)
1,GACACTGCTTGGGTTCTAACCTGTTGCCT (site GAAACTGCTAG),0.274
2,GACACTGCTTGGGTTCTAACCTGTTGCCT (site GACACTGCTAG),0.403
3,GACACTGCTTGGGTTCTAACCTGTTGCCT (site GAGACTGCTAG),0.044
4,GACACTGCTTGGGTTCTAACCTGTTGCCT (site GATACTGCTAG),0.233
5,GACAGGCCTTGGGTTCTAACCTGTTGCGT (site CTGCTAGCTCT),0.278
6,GACAGGCCTTGGGTTCTAACCTGTTGCGT (site GACAGGCCTAC),1.31
7,GACATACCTTGGGTTCTAACCTGTTGCCT (site GACATACCTAG),0.794
8,GACATACCTTGGGTTCTAACCTGTTGCCT (site GACCTACCTAG),0.273
9,GACATACCTTGGGTTCTAACCTGTTGCCT (site GACGTACCTAG),0.412
10,GACATACCTTGGGTTCTAACCTGTTGCCT (site GACTTACCTAG),0.251
11,GACATCGCTTGGGTTCTAACCTGTTGCCT (site GACATCACTAG),0.0851
12,GACATCGCTTGGGTTCTAACCTGTTGCCT (site GACATCCCTAG),0.0326
13,GACATCGCTTGGGTTCTAACCTGTTGCCT (site GACATCGCTAG),1.64
14,GACATCGCTTGGGTTCTAACCTGTTGCCT (site GACATCTCTAG),0.641
15,GACCACTCTTGGGTTCTAACCTGTTGCCT (site AACCACTCTAG),1.4
16,GACCACTCTTGGGTTCTAACCTGTTGCCT (site CACCACTCTAG),1.2
17,GACCACTCTTGGGTTCTAACCTGTTGCCT (site GACCACTCTAG),2.39
18,GACCACTCTTGGGTTCTAACCTGTTGCCT (site TACCACTCTAG),1.42

row,Sequence,recombinant barcode read abundance (log10)
1,GACCAGCCTTGGGTTCTAACCTGTTGCAT (site GACCAGCCTAA),0.106
2,GACCAGCCTTGGGTTCTAACCTGTTGCAT (site GACCAGCCTAC),0.74
3,GACCAGCCTTGGGTTCTAACCTGTTGCAT (site GACCAGCCTAG),0.466
4,GACCAGCCTTGGGTTCTAACCTGTTGCAT (site GACCAGCCTAT),1.82
5,GACCAGCCTTGGGTTCTAACCTGTTGCGT (site GACCAGCCTAA),0.104
6,GACCAGCCTTGGGTTCTAACCTGTTGCGT (site GACCAGCCTAC),2.4
7,GACCAGCCTTGGGTTCTAACCTGTTGCGT (site GACCAGCCTAG),0.266
8,GACCAGCCTTGGGTTCTAACCTGTTGCGT (site GACCAGCCTAT),1.32
9,GACCAGCCTTGGGTTCTAACCTGTTGCTT (site GACCAGCCTAA),1.59
10,GACCAGCCTTGGGTTCTAACCTGTTGCTT (site GACCAGCCTAC),0.994
11,GACCAGCCTTGGGTTCTAACCTGTTGCTT (site GACCAGCCTAG),1.29
12,GACCAGCCTTGGGTTCTAACCTGTTGCTT (site GACCAGCCTAT),0.746
13,GACCCACCTTGGGTTCTAACCTGTTGCCT (site AACCCACCTAG),1.64
14,GACCCACCTTGGGTTCTAACCTGTTGCCT (site CACCCACCTAG),0.814
15,GACCCACCTTGGGTTCTAACCTGTTGCCT (site GACCCACCTAG),1.76
16,GACCCACCTTGGGTTCTAACCTGTTGCCT (site TACCCACCTAG),1.4
17,GACCCATCTTGGGTTCTAACCTGTTGCCT (site GACACAACTAG),0.0316
18,GACCCATCTTGGGTTCTAACCTGTTGCCT (site GACCCATCTAG),0.683
